Experimental data published in patent US10800791B2, “Triazole ACC inhibitors and uses thereof” (Gilead Apollo, LLC, priority 2015, dated 2020).
Values after ≈ are worked out from the molar mass of the structure shown. Read-outs that look alike come from different tables or passages of the source.

Columns and labels:
human (hACC2) = human (hACC2) (Homo sapiens, UniProt O00763); experiment: In vitro ACC inhibition assay (ADP-Glo), hACC2; assay type: biochemical; conditions: 5 nM ACC2, 20 μM ATP, 20 μM acetyl-CoA
Chain of human (hACC2) (O00763 whole entry): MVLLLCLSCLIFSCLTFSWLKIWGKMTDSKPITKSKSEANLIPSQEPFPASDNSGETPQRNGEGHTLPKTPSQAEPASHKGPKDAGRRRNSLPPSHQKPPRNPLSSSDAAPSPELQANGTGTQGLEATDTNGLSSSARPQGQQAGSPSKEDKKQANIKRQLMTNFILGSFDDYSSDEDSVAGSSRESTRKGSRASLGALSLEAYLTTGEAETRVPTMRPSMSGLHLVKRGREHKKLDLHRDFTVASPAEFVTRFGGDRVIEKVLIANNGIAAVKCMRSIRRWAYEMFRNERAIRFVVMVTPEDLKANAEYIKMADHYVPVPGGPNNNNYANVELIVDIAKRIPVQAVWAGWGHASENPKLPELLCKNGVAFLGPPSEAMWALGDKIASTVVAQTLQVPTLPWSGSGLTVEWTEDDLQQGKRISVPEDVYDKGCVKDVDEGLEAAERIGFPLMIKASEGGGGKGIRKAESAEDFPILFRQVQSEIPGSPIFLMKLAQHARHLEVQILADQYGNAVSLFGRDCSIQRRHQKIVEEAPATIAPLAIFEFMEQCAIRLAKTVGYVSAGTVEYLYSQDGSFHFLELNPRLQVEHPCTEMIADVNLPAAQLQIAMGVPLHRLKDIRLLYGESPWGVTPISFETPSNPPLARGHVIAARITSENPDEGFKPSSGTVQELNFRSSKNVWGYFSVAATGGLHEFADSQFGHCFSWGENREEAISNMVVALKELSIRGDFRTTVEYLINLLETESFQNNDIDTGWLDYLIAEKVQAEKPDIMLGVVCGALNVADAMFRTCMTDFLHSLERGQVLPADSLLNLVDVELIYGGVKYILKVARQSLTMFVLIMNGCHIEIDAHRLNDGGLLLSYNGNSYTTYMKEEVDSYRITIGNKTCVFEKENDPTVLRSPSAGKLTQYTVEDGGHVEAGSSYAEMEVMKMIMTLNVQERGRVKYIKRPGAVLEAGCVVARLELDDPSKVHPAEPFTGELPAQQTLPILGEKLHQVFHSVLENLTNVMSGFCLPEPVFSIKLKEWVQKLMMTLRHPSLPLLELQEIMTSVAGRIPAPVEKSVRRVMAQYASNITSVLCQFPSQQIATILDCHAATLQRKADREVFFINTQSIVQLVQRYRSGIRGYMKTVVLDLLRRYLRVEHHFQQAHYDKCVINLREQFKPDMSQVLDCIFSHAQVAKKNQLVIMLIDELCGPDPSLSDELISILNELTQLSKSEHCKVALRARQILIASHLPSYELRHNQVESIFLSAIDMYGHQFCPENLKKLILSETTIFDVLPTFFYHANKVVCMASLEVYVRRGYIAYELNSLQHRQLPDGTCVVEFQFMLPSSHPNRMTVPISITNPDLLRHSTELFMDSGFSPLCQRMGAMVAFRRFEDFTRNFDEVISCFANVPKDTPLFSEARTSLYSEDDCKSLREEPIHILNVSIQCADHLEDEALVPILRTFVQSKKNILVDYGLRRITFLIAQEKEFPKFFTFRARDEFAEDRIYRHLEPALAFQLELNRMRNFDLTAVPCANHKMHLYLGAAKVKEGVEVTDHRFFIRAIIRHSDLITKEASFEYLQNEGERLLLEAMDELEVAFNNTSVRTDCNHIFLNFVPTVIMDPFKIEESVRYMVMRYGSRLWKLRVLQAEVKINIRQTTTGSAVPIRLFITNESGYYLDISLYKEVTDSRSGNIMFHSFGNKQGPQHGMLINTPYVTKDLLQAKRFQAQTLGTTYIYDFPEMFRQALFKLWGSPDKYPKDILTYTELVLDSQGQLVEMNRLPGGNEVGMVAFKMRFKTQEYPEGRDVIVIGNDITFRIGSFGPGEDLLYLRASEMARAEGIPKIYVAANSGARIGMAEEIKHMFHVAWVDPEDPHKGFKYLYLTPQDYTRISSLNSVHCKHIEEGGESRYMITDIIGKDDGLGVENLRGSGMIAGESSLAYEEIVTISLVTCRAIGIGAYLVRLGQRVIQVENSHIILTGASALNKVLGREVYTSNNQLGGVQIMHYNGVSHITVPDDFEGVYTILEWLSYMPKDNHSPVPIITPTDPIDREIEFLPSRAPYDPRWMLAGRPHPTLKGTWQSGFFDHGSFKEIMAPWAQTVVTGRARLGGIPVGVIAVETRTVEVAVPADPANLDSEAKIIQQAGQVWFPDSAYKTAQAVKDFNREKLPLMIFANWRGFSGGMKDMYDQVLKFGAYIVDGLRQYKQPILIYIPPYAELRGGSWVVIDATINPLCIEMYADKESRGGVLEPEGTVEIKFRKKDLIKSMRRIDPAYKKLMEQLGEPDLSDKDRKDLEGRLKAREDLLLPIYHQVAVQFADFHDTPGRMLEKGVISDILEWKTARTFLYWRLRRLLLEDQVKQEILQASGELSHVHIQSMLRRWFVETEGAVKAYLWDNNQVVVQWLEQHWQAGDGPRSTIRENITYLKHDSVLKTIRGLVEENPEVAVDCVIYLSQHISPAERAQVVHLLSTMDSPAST
Method: The detailed procedure is as follows. […] 10 μL ADP glo reagent was added. […] 20 μL kinase detection reagent was added.

C. albicans = experiment: Antifungal Activity Assay (broth microtiter MIC), C. albicans; assay type: cell-based, Candida albicans; conditions: Candida albicans, ATCC90028, 48 h
Method in brief: (§1)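 MIC read by eye at 48 h, comparing challenged wells with the growth control. Yeasts grown overnight on Sabouraud dextrose agar at 35° C, suspended in RPMI 1640+MOPS and added at 2.5×10^3 CFU/mL final, following CLSI M27-A3.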

C. krusei = experiment: Antifungal Activity Assay (broth microtiter MIC), C. krusei; assay type: cell-based, Candida krusei; conditions: Pichia kudriavzevii, ATCC6258, 48 h
Method in brief: as §1

C. parapsilosis = experiment: Antifungal Activity Assay (broth microtiter MIC), C. parapsilosis; assay type: cell-based, Candida parapsilosis; conditions: Lodderomyces parapsilosis, ATCC22019, 48 h
Method in brief: as §1

fungal (fACC2) = fungal (fACC2) (UniProt Q00955); conditions: read-out: fACC2 (in vitro ACC2 Inhibition Assay, IC50), ADP-Glo, 5 nM ACC2, 20 μM ATP, 20 μM acetyl-CoA
Chain of fungal (fACC2) (Q00955 whole entry): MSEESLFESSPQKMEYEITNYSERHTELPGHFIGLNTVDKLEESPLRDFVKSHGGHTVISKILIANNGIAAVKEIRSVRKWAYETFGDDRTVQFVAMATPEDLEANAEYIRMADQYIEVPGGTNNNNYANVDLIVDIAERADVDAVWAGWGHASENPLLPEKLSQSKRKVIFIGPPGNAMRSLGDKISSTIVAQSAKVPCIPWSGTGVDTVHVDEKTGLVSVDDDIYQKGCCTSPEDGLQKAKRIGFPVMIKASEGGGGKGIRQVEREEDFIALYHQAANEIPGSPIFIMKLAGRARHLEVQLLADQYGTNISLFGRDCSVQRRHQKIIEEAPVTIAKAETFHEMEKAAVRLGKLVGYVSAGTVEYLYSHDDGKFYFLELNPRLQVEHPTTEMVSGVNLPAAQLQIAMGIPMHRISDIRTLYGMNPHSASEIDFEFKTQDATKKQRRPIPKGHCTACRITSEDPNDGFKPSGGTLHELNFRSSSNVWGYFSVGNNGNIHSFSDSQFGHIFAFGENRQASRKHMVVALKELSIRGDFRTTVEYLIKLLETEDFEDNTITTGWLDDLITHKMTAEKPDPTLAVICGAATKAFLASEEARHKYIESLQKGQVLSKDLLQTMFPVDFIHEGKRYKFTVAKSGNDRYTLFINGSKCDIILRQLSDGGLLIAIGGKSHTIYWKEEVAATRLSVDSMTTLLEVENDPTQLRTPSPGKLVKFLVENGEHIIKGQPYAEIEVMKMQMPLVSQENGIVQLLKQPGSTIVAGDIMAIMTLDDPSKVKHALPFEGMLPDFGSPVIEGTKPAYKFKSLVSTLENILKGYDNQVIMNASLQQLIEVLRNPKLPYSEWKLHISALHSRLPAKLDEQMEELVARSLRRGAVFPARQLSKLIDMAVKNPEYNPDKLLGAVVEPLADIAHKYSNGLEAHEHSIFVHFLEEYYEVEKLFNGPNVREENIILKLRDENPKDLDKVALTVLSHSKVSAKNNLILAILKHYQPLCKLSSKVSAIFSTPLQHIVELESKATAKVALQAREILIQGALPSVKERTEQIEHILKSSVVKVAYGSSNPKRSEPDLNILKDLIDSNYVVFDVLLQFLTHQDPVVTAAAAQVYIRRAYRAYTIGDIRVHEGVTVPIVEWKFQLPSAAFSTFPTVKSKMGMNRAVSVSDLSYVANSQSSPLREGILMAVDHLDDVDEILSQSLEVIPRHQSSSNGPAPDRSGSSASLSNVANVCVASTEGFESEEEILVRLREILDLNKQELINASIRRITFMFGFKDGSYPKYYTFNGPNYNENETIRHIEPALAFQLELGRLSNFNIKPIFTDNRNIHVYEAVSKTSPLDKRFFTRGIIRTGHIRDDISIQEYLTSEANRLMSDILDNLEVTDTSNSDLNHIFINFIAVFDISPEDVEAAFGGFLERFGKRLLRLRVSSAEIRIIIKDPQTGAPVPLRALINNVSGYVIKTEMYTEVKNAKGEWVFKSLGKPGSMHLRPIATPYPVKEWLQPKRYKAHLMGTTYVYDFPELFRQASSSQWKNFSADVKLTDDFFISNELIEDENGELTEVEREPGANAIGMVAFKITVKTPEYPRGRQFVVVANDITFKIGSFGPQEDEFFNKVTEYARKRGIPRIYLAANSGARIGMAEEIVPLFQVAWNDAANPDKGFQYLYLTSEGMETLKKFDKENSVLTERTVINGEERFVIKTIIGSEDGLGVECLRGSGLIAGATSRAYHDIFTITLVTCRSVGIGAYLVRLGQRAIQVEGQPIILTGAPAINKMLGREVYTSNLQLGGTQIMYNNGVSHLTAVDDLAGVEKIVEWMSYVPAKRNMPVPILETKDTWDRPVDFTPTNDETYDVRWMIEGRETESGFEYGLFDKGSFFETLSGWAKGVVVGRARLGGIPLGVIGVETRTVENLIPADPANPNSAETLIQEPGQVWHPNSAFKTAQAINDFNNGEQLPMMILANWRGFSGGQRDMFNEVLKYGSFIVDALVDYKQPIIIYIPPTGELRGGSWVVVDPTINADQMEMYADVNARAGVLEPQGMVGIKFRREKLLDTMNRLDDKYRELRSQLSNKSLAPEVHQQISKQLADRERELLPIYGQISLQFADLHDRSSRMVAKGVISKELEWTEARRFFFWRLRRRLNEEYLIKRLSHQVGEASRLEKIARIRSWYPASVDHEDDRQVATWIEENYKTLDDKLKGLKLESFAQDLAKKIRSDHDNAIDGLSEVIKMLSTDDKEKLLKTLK

[1] = read-out: MIC, C. albicans ATCC 90028, Table 3b (additional results), 3 replicates, MIC recorded at 48 h
[2] = read-out: MIC, C. krusei ATCC 6258, Table 3b (additional results), 3 replicates, MIC recorded at 48 h
[3] = read-out: MIC, C. parapsilosis ATCC 22019, Table 3b (additional results), 3 replicates, MIC recorded at 48 h
[4] = Table 3a, ATCC 90028, 3 replicates, MIC recorded at 48 h, read-out: MIC, C. albicans ATCC 90028
[5] = Table 3b (additional results), ATCC 90028, 3 replicates, MIC recorded at 48 h, read-out: MIC, C. albicans ATCC 90028
[6] = Table 3a, ATCC 6258, 3 replicates, MIC recorded at 48 h, read-out: MIC, C. krusei ATCC 6258
[7] = Table 3b (additional results), ATCC 6258, 3 replicates, MIC recorded at 48 h, read-out: MIC, C. krusei ATCC 6258
[8] = Table 3a, ATCC 22019, 3 replicates, MIC recorded at 48 h, read-out: MIC, C. parapsilosis ATCC 22019
[9] = Table 3b (additional results), ATCC 22019, 3 replicates, MIC recorded at 48 h, read-out: MIC, C. parapsilosis ATCC 22019

Row | Compound | IC50 (human (hACC2); Table 2a) | IC50 (human (hACC2); Table 2b, additional results) | MIC (C. albicans; read-out: MIC, C. albicans ATCC 90028, Table 3a, 3 replicates, MIC recorded at 48 h) | MIC (C. albicans; [1]) | MIC (C. krusei; read-out: MIC, C. krusei ATCC 6258, Table 3a, 3 replicates, MIC recorded at 48 h) | MIC (C. krusei; [2]) | MIC (C. parapsilosis; read-out: MIC, C. parapsilosis ATCC 22019, Table 3a, 3 replicates, MIC recorded at 48 h) | MIC (C. parapsilosis; [3]) | IC50 (fungal (fACC2); Table 2a) | IC50 (fungal (fACC2); Table 2b, additional results) | MIC (C. albicans; [4]) | MIC (C. albicans; [5]) | MIC (C. krusei; [6]) | MIC (C. krusei; [7]) | MIC (C. parapsilosis; [8]) | MIC (C. parapsilosis; [9])
1 | COc1ccc(F)cc1[C@H](Cn1c(=O)n(C(C)(C)C(=O)NC(C)C)c(=O)c2c(C)c(-n3nccn3)sc21)O[C@H]1CC[C@H](C#N)CC1 [Compound I-159] | 1 to 5 nM | 1 to 5 nM | 0.25 to 1 µg/mL (≈ 0.384 to 1.53 µM) | 0.25 to 1 µg/mL (≈ 0.384 to 1.53 µM) | 0.25 to 1 µg/mL (≈ 0.384 to 1.53 µM) | 0.06 to 0.249 µg/mL (≈ 0.0921 to 0.382 µM) | 0.25 to 1 µg/mL (≈ 0.384 to 1.53 µM) | 0.25 to 1 µg/mL (≈ 0.384 to 1.53 µM) | 1 to 5 nM | 1 to 5 nM | – | – | – | – | – | –
2 | COc1ccc(F)cc1[C@H](Cn1c(=O)n(C(C)(C)C(=O)NC(C)(C)C)c(=O)c2c(C)c(-n3nccn3)sc21)OCCCO [Compound I-160] | 5 to 10 nM | 5 to 10 nM | – | – | – | – | – | – | 1 to 5 nM | 1 to 5 nM | 2.1 to 4 µg/mL (≈ 3.41 to 6.49 µM) | 2.01 to 4 µg/mL (≈ 3.26 to 6.49 µM) | 0.25 to 1 µg/mL (≈ 0.405 to 1.62 µM) | 1.01 to 2 µg/mL (≈ 1.64 to 3.24 µM) | 1.1 to 2 µg/mL (≈ 1.78 to 3.24 µM) | 2.01 to 4 µg/mL (≈ 3.26 to 6.49 µM)
3 | COc1ccc(F)cc1[C@H](Cn1c(=O)n(C(C)(C)C(=O)NO)c(=O)c2c(C)c(-n3nccn3)sc21)OCCCO [Compound I-161] | 1 to 5 nM | 1 to 5 nM | – | – | – | – | – | – | 0.4 to 1 nM | 0.3 to 1 nM | 2.1 to 4 µg/mL (≈ 3.64 to 6.94 µM) | 2.01 to 4 µg/mL (≈ 3.49 to 6.94 µM) | 2.1 to 4 µg/mL (≈ 3.64 to 6.94 µM) | 1.01 to 2 µg/mL (≈ 1.75 to 3.47 µM) | 2.1 to 4 µg/mL (≈ 3.64 to 6.94 µM) | 2.01 to 4 µg/mL (≈ 3.49 to 6.94 µM)
4 | COc1ccc(F)cc1[C@H](Cn1c(=O)n(C(C)(C)C(=O)N(O)C(C)C)c(=O)c2c(C)c(-n3nccn3)sc21)OCCCO [Compound I-163] | 5 to 10 nM | 5 to 10 nM | – | – | – | – | – | – | 1 to 5 nM | 1 to 5 nM | 0.25 to 1 µg/mL (≈ 0.404 to 1.62 µM) | 1.01 to 2 µg/mL (≈ 1.63 to 3.23 µM) | 0.25 to 1 µg/mL (≈ 0.404 to 1.62 µM) | 0.25 to 1 µg/mL (≈ 0.404 to 1.62 µM) | 0.25 to 1 µg/mL (≈ 0.404 to 1.62 µM) | 2.01 to 4 µg/mL (≈ 3.25 to 6.47 µM)
5 | COc1ccc(F)cc1[C@H](Cn1c(=O)n([C@H](C)C(=O)N(C)C(C)C)c(=O)c2c(C)c(-n3nccn3)sc21)OC1CCC(=O)CC1 [Compound I-164] | 5 to 10 nM | 5 to 10 nM | – | – | – | – | – | – | 1 to 5 nM | 1 to 5 nM | 0.25 to 1 µg/mL (≈ 0.39 to 1.56 µM) | 0.25 to 1 µg/mL (≈ 0.39 to 1.56 µM) | 0.25 to 1 µg/mL (≈ 0.39 to 1.56 µM) | 0.25 to 1 µg/mL (≈ 0.39 to 1.56 µM) | 0.25 to 1 µg/mL (≈ 0.39 to 1.56 µM) | 1.01 to 2 µg/mL (≈ 1.58 to 3.12 µM)
6 | COc1ccc(F)cc1[C@H](Cn1c(=O)n([C@@H](C)C(=O)N(C)C(C)C)c(=O)c2c(C)c(-n3nccn3)sc21)OC1CCC(=O)CC1 [Compound I-165] | 5 to 10 nM | 5 to 10 nM | – | – | – | – | – | – | 1 to 5 nM | 1 to 5 nM | 0.25 to 1 µg/mL (≈ 0.39 to 1.56 µM) | 0.25 to 1 µg/mL (≈ 0.39 to 1.56 µM) | 0.25 to 1 µg/mL (≈ 0.39 to 1.56 µM) | 0.25 to 1 µg/mL (≈ 0.39 to 1.56 µM) | 1.1 to 2 µg/mL (≈ 1.72 to 3.12 µM) | 1.01 to 2 µg/mL (≈ 1.58 to 3.12 µM)
7 | COc1ccc(F)cc1[C@H](Cn1c(=O)n([C@H](C)C(=O)N(C)C(C)C)c(=O)c2c(C)c(-n3nccn3)sc21)O[C@H]1CC[C@@H](O)CC1 [Compound I-166] | 1 to 5 nM | 1 to 5 nM | – | – | – | – | – | – | 0.4 to 1 nM | 0.3 to 1 nM | 0.25 to 1 µg/mL (≈ 0.389 to 1.56 µM) | 0.25 to 1 µg/mL (≈ 0.389 to 1.56 µM) | 0.25 to 1 µg/mL (≈ 0.389 to 1.56 µM) | 1.01 to 2 µg/mL (≈ 1.57 to 3.11 µM) | 0.25 to 1 µg/mL (≈ 0.389 to 1.56 µM) | 1.01 to 2 µg/mL (≈ 1.57 to 3.11 µM)
8 | COc1ccc(F)cc1[C@H](Cn1c(=O)n([C@@H](C)C(=O)N(C)C(C)C)c(=O)c2c(C)c(-n3nccn3)sc21)O[C@H]1CC[C@@H](O)CC1 [Compound I-167] | 5 to 10 nM | 5 to 10 nM | – | – | – | – | – | – | 0.4 to 1 nM | 0.3 to 1 nM | 1.1 to 2 µg/mL (≈ 1.71 to 3.11 µM) | 0.25 to 1 µg/mL (≈ 0.389 to 1.56 µM) | 0.25 to 1 µg/mL (≈ 0.389 to 1.56 µM) | 1.01 to 2 µg/mL (≈ 1.57 to 3.11 µM) | 2.1 to 4 µg/mL (≈ 3.27 to 6.22 µM) | 1.01 to 2 µg/mL (≈ 1.57 to 3.11 µM)
9 | COc1ccc(F)cc1[C@H](Cn1c(=O)n(C(C)(C)C(=O)NC(C)C)c(=O)c2c(C)c(-n3nccn3)sc21)OCCC(C)(C)O [Compound I-168] | 5 to 10 nM | 5 to 10 nM | – | 0.25 to 1 µg/mL (≈ 0.396 to 1.59 µM) | – | 0.25 to 1 µg/mL (≈ 0.396 to 1.59 µM) | – | 0.25 to 1 µg/mL (≈ 0.396 to 1.59 µM) | 1 to 5 nM | 1 to 5 nM | – | – | – | – | – | –
10 | COc1ccc(F)cc1[C@H](Cn1c(=O)n([C@H](C)C(=O)N(C)C(C)C)c(=O)c2c(C)c(-n3nccn3)sc21)OCC(C)(C)O [Compound I-169] | > 40 nM | > 40 nM | – | – | – | – | – | – | 1 to 5 nM | 1 to 5 nM | – | 0.25 to 1 µg/mL (≈ 0.405 to 1.62 µM) | – | > 4.01 µg/mL | – | 2.01 to 4 µg/mL (≈ 3.26 to 6.49 µM)
